From US20110097338A1, “Use of Substances for Sensitization of Tumor Cells to Radiation and/or Chemotherapy” (TECHNISCHE UNIVERSITAET DRESDEN, priority 2008, published 2011)
d = 2'-deoxy (DNA); r = 2'-OH (RNA)

What was measured:
Assay type in all cases: cell-based, human
PINCH-1 protein = assay: Western Blot of PINCH-1 knock-down after siRNA transfection; details: HCT-116 and DLD-1 cells; 20 nmol/l siRNA with oligo fectamine; lysates 48 h after transfection
Description: (§1) Human colorectal tumor cell lines of the type HCT-116 (ATCC No. CCL-247) and of the type DLD-1 (ATCC No. CCL-221) were transfected with PINCH-1-siRNA of the SEQ ID No. 5. For this purpose, 3×10^5 tumor cells on 6-well plates (BD, Heidelberg) in Dulbecco's Modified Eagle (DMEM; Gibco, Karlsruhe) with Glutamax-I (L-alanyl-L-glutamine), 10% serum (FCS; Biochrom, Berlin) and 1% of non-essential amino acids (Gibco, Karlsruhe) were seeded and cultured at 37° C. and 7% CO2. After 24 h the cells were washed once with Opti-MEM I (Invitrogen, Karlsruhe) and transfected with oligo fectamine (0.2%) and 20 nmol/l PINCH-1-siRNA for 8 h without serum in Opti-MEM I. Afterwards 10% serum was added and the cells incubated for another 16 h at 37° C. and 7% CO2. After a total of 24 h after transfection the cells were washed with phosphate-buffered saline solution (PBS; PAA, Cölbe) and removed with trypsin/EDTA solution. […] Of this portion, protein lysates were produced for examining knock-downs in the Western Blot, the proteins were separated by means of SDS PAGE, transferred onto a nitrocellulose membrane and detected with a mouse-anti-PINCH-1-antibody (clone 49; BD Heidelberg) as well as a peroxidase-coupled goat-anti-mouse-secondary antibody and the ECL system (GE Healthcare, Munich).

DLD-1 = assay: Clonogenic survival after radiation (colony forming assay), siRNA transfection; details: siRNA 20 nmol/l, irradiated 48 h later with 0-6 Gy
Description: as §1

HCT-116 = assay: as above; details: siRNA 20 nmol/l, irradiated 48 h later with 0-6 Gy
Description: as §1

## GCUAUAUCUCAAAGCAGUUtt (GCUAUAUCUCAAAGCAGUUTT; siRNA; sugars from the 5' end r19 d2, backbone not given here) [PINCH-1-siRNA of the SEQ ID No. 5]
PINCH-1 protein
  formation of PINCH-1 protein / PINCH-1 expression (Western Blot, FIG. 3): prevented
DLD-1
  survival rate after radiation vs. control-siRNA (FIG. 4): lowered significantly
HCT-116
  survival rate after radiation vs. control-siRNA (FIG. 4): lowered significantly
